These results are taken from patent US10500198B2, “Bis-benzylidine piperidone proteasome inhibitor with anticancer activity” (The Johns Hopkins University, priority 2013, dated 2019).

Where a name gives a salt, the structure may show the parent alone.

For one assay, the system named is NCI-H929 cells. Put plainly: Active caspase-3 by FACS. The assay is classed as cell-based, human. The following applies: 0.5 μM, 8 h. As for the experimental part: NCI-H929 cells were treated with RA195 (0.5 μM) and Bz(0.5 μM) for the period of 8 h. Cells were stained for PE-conjugated Caspase-3 antibody and measured active caspase-3 by FACS.
A further assay has as its target purified 20S proteasomes (Homo sapiens, UniProt P28072+P28074+Q99436). Put plainly: 20S proteolytic activity assay. The assay is classed as biochemical. To be noted: 1 μM, 30 min. As for the experimental part:
Actin was used as a loading control. […] In FIG. 9C-E, purified 20S proteasomes were treated for 30 min with or without compounds (1 μM) prior to the addition of the specific fluorogenic substrate for chymotryptic (9C), tryptic (9D) or PGPH (9E) hydrolytic proteasome capacities. […] DMSO was added to all samples to a final concentration of 0.1% (upper panel). The effect of DMSO is highlighted by including ubiquitin—AMC (0.5 μM) hydrolysis with 2 nM UCH37 lacking DMSO (orange, bottom panel). In FIG. 9H, purified 19S RP (500 nM) in buffer was treated with corresponding compounds 30 min at 37° C. and AMC cleavage was measured with a fluorometer for 20 min. Ubal was used as a positive control.
Release of free AMC by the enzyme reaction was determined by measuring its fluorescence at 380 nm (excitation) and 440 nm (emission). The graphs shown are representative of at least three independent determinations and each data point is the mean of ±SD of triplicate determinations.
20S proteasome cleaves the chymotryptic substrate and releases fluorescent AMC.

A further assay concerns U266 cells. Put plainly: Active caspase-3 by FACS. It counts as cell-based. To be noted: 0.5 μM, 8 h. As for the experimental part: U266 cells were treated with RA195 (0.5 μM) and Bz(0.5 μM) for the period of 8 h. Cells were stained for PE-conjugated Caspase-3 antibody and measured active caspase-3 by FACS.
The test system of a further assay is cancer cells. Put plainly: Antiproliferative activity against cancer cells (design rationale). It counts as cell-based. From the text:
We used Chloro and Nitro functional groups as substituent's on the aromatic ring due to their greater electron withdrawing effect at ortho (or) para (or) meta (or) both positions along with different amino acid linkages on bis-benzylidine piperidone moiety. Amino acids were chosen based in their physical characteristics like very hydrophobic (phenylalanine), strongly basic and hydrophilic (lysine), basic and hydrophilic (histidine) and amphiphilic (glycine). Commercially available Fmoc and Boc protected amino acids were used in the synthesis, and they were evaluated for their antiproliferatory activity against cancer cells.
Next we synthesized another set of compounds by converting free amine functionality to its Acetate (Ac), Acrolyl (Acr) and Benzoyl […] analogs as these units are part of many anticancer drugs because of their smaller size and feasibility to form inter molecular hydrogen bonds with proteins.
In the RA195 molecule two amino functionalities of lysine can provide more flexibility to make better analogs.

For another assay, the system named is OVCAR3. Description: Cell viability after 48-hr treatment (Table 1). The following applies: Homo sapiens, OVCAR-3, XTT assay. It counts as cell-based, human. As for the experimental part: (§1) Cell viability was assayed using CellTiter 960 AQueous One Solution Reagent (Promega, Madison, Wis.). Cells seeded at the concentration of 1,000 cells/well for HeLa, 5,000 cells/well for ES2 and HCT116 and 10,000-20,000 cells/well for other cell lines in 100 μL medium in 96-well plate were treated with RA series compounds at specified concentrations. […]

For another assay, the system named is HeLa. Description: Cell viability after 48-hr treatment (Table 1). To be noted: Homo sapiens, HeLa; 48-hr treatment; XTT assay; read-out: IC50, HeLa. The assay is classed as cell-based, human. As for the experimental part: as §1
Another assay deals with HT3. Put plainly: Cell viability after 48-hr treatment (Table 1). The following applies: Homo sapiens, HT-3; 48-hr treatment; XTT assay; read-out: IC50, HT3. The assay is classed as cell-based. As for the experimental part:
(§2) Cells seeded at the concentration of 1,000 cells/well for HeLa, 5,000 cells/well for ES2 and HCT116 and 10,000-20,000 cells/well for other cell lines in 100 μL medium in 96-well plate were treated with RA series compounds at specified concentrations. […]

Another assay deals with HaCaT. Description: Cell viability after 48-hr treatment (Table 1). It counts as cell-based. To be noted: Homo sapiens, HaCaT; 48-hr treatment; XTT assay; read-out: IC50, HaCaT. As for the experimental part: as §2
The test system of a further assay is SiHa. Put plainly: Cell viability after 48-hr treatment (Table 1). The assay is classed as cell-based. The following applies: Homo sapiens, SiHa; 48-hr treatment; XTT assay; read-out: IC50, SiHa. As for the experimental part: as §2
The next assay concerns RPMI8226. Put plainly: Cell viability after 48-hr treatment (Table 1). It counts as cell-based. The following applies: Homo sapiens, RPMI-8226, XTT assay. As for the experimental part:
as §2

For the next assay, the system named is HOK-16B. Description: Cell viability after 48-hr treatment (Table 1). It counts as cell-based. To be noted: 48-hr treatment; XTT assay; read-out: IC50, HOK-16B. As for the experimental part: (§3) Cell viability was assayed using CellTiter 960 AQueous One Solution Reagent (Promega, Madison, Wis.). Cells seeded at the concentration of 1,000 cells/well for HeLa, 5,000 cells/well for ES2 and HCT116 and 10,000-20,000 cells/well for other cell lines in 100 μL medium in 96-well plate were treated with RA series compounds at specified concentrations. After the indicated periods, cells were incubated according to the manufacturer's protocol with the MTS labeling mixture for 1-2 hr and absorbance at 490 nm measured using a Benchmark Plus microplate spectrophotometer (BIO-RAD).

For a further assay, the system named is CasKi. Description: Cell viability after 48-hr treatment (Table 1). It counts as cell-based. To be noted: Homo sapiens, Ca-Ski; 48-hr treatment; XTT assay; read-out: IC50, CasKi. As for the experimental part: as §3
A further assay concerns C33A. Put plainly: Cell viability after 48-hr treatment (Table 1). It counts as cell-based. The following applies: Homo sapiens, C-33-A; 48-hr treatment; XTT assay; read-out: IC50, C33A. As for the experimental part: as §1
Another assay deals with MM.1S. Put plainly: Cell viability after 48-hr treatment (Table 1). It counts as cell-based. To be noted: Homo sapiens, MM1.S, XTT assay. As for the experimental part: as §1
Another assay deals with FaDu. Put plainly: Cell viability after 48-hr treatment (Table 1). The following applies: Homo sapiens, FaDu; 48-hr treatment; XTT assay; read-out: IC50, FaDu. The assay is classed as cell-based. As for the experimental part:
as §1

A further assay concerns SKOV3. Description: Cell viability after 48-hr treatment (Table 1). The assay is classed as cell-based. The following applies: Homo sapiens, SK-OV-3; 48-hr treatment; XTT assay; read-out: IC50, SKOV3. As for the experimental part:
as §1

The next assay relates to NCl-H929. Put plainly: Cell viability after 48-hr treatment (Table 1). The following applies: Homo sapiens, XTT assay. The assay is classed as cell-based, human. As for the experimental part: as §2
Assay [1] relates to TNFα-induced NFκB activation in 293 cells. Put plainly: NFκB/FL reporter assay. It counts as cell-based. To be noted: TNFα 10 ng/ml, 7 h. As for the experimental part: 293 cells transiently transfected with either NFκB/FL (firefly luciferase reporter construct under control of an NFκB-driven promoter) or control CMV promoter-driven FL reporter construct were treated with compounds and TNFα (10 ng/ml) for 7 h. Upon the addition of luciferin, bioluminescence was measured in cell lysates using a luminometer. Results can be seen in FIG. 20.
293 cells transiently transfected with either NFκB/FL or control FL reporter genes were treated with compounds and TNFα (10 ng/ml) for 7 h. Upon the addition of luciferin, bioluminescence was measured in cell lysates using a luminometer.

The test system of assay [2] is tetraubiquitin-firefly luciferase (4UbFL) reporter in HeLa cells. Description: Cell culture assay for luciferase (4UbFL reporter). The assay is classed as cell-based, human. To be noted: 4 hr treatment. As for the experimental part: Sub-confluent cultures of HeLa cells were transfected with 4UbFL or FL plasmids using Lipofectamine 2000 reagent (Life Technologies, Carlsbad, Calif.). […] Luciferase activity in cell lysate was determined with a luciferase assay kit (Promega, Madison, Wis.) according to the manufacturer's instructions. Bioluminescence was measured by using a Glomax Multidetection system (Promega, Madison, Wis., USA).
HeLa cells were transiently transfected with tetra ubiquitin-fused firefly luciferase (4UB-FL) plasmid. After 48 h, the transfected cells were treated with titrations of the indicated compounds for 4 h, and luciferase activity was measured. Data is expressed as a 4UB-FL fold change compared to untreated cells.

A further assay has as its system HeLa cells. Description: Cell surface HSP90 staining. It counts as cell-based, human. The text has this: Cell surface HSP90 was detected by staining with purified anti-HSP90 mAb (Stressgen), followed by PE-conjugated anti-mouse IgG1. The data were acquired with a FACSCalibur and analyzed using CellQuest software.

On to `Cl.N[C@@H](Cc1ccccc1)C(=O)N1C/C(=C\c2ccc([N+](=O)[O-])cc2)C(=O)/C(=C/c2ccc([N+](=O)[O-])cc2)C1` [RA183], for which the “active caspase-3” value with NCI-H929 cells and with U266 cells was “caused an increase in caspase-3 expression” each time. The “chymotryptic activity of the 20S proteasome (Suc-LLVY-AMC)” value on purified 20S proteasomes was “do not”. In addition, in the assay on cancer cells, the “antiproliferative potency among analogs” value is listed as “higher potency”.

`CC(=O)N[C@@H](Cc1ccccc1)C(=O)N1C/C(=C\c2ccc(Cl)c(Cl)c2)C(=O)/C(=C/c2ccc(Cl)c(Cl)c2)C1` [RA190Ac, 3,5-bis(3,4-dichlorobenzylidene)-1-(N-(1-oxo-S-3-phenyl-1-propan-2-yl)acetamide)-piperidin-4-one-HCl salt]: the IC50 was 2000 nM with OVCAR3; 170 nM with HeLa; > 5000 nM with HT3; > 2500 nM in the assay on HaCaT; 1000 nM with SiHa; 150 nM with RPMI8226. Besides, the IC50 with HOK-16B is 750 nM; with CasKi, 300 nM; in the assay with C33A, > 5000 nM; with MM.1S, 50 nM; in the assay on FaDu, > 2500 nM; in the assay with SKOV3, > 2500 nM. In the assay on NCl-H929, this compound displayed an IC50 of 75 nM.

Regarding `Cl.NC(Cc1ccccc1)C(=O)N1C/C(=C\c2ccc(Cl)c(Cl)c2)C(=O)/C(=C/c2ccc(Cl)c(Cl)c2)C1` (stereo not drawn) [RA190D], the “antiproliferative potency among analogs” value in the assay with cancer cells is “Neither of these compounds was as good as RA190”.

On to `O=C1/C(=C/c2ccc(Cl)c(Cl)c2)CN(C(=O)[C@H](Cc2ccccc2)NC(=O)c2ccccn2)C/C1=C\c1ccc(Cl)c(Cl)c1` [RA190P], for which the “antiproliferative potency among analogs” value in the assay on cancer cells is reported as “Neither of these compounds was as good as RA190”.

For the compound `CC(=O)N[C@@H](CCCCN)C(=O)N1C/C(=C\c2ccc(Cl)c(Cl)c2)C(=O)/C(=C/c2ccc(Cl)c(Cl)c2)C1.Cl` [RA195Ac], the “active caspase-3” value in the assay on NCI-H929 cells and in the assay on U266 cells was “caused an increase in caspase-3 expression” each time. Moreover, the “TNFα-induced NFκB activation” value in assay [1] is “inhibited TNFα-induced NFκB activation”. Also, the “proteasome inhibition by 4UbFL stabilization (relative potency)” value in assay [2] is “more potent than the parent molecule RA195”.

With `Cl.NCCCC[C@H](NC(=O)OCc1ccccc1Cl)C(=O)N1C/C(=C\c2ccc([N+](=O)[O-])cc2)C(=O)/C(=C/c2ccc([N+](=O)[O-])cc2)C1` [RA195Bn], the “active caspase-3” value with NCI-H929 cells and with U266 cells was “caused an increase in caspase-3 expression” throughout. In addition, the “proteasome inhibition by 4UbFL stabilization (relative potency)” value in [2] is recorded as “more potent than the parent molecule RA195”.

As to `N.N.[Cl][Pt][Cl]` [cisplatin], the “surface display of HSP90” value in the assay on HeLa cells is on record as “did not induce surface display of HSP90”.
